No end group written: not given here.
Key:
HDAC5 nuclear export [1] = assay: PMA-induced GFP-HDAC5 nuclear export in Cos7 cells (fluorescence microscopy); assay type: cell-based; conditions: for PMA-induced HDAC5 nuclear export: GFP-HDAC5-WT, pretreatment, then PMA for 3 hours
Procedure: (§1) A, B, Cos7 cells were co-transfected with expression vectors encoding GFP-tagged HDAC5 (GFP-HDAC5) and constitutively active protein kinases as indicated, and then exposed to phorbol-12-myristate-13-acetate (PMA, […]) for 3 hours. […] A-F, The cells were fixed and the subcellular localization of GFP-HDAC5 was visualized by fluorescence microscopy.
C, D, Cos7 cells were transfected with GFP-HDAC5-WT or GFP-HDAC5-S280D and then exposed to PMA for 3 hours. GFP-HDAC5-S280D but not GFP-HDAC5-WT was resistant to PMA-induced nuclear export. *, p<0.05 versus without PMA, n=4. E, F, Cos7 cells were transfected with Flag-HDAC5-WT or Flag-HDAC5-S280A mutant, and then pretreated with forskolin followed with the exposure to PMA. Phosphorylation of HDAC5 in cell lysates was analyzed by immunoblotting with phospho-specific HDAC5 antibodies that recognize the HDAC5 phosphorylated at Ser259 (E) and Ser498 (F). G, H, Cos7 cells were transfected with Flag-HDAC5-WT, Flag-HDAC5-S280A or Flag-HDAC5-S280D, and then pretreated with forskolin, followed with the exposure to PMA. Coimmunoprecipitation of Flag-HDAC5 in cell lysates and then immunoblotting with anti-14-3-3 beta and anti-Flag antibodies in immunoprecipitates were performed. 14-3-3 in total cell lysates (5% of the input) was determined by immunoblotting with anti-14-3-3 antibodies. Representative blots are shown, n=3.
The cells were fixed and GFP-HDAC5 localization was analyzed by fluorescence microscopy.
For analysis of GFP-HDAC5 subcellular localization in NRVMs and Cos7 cells, cells were plated in the presence of adenovirus (multiplicity of infection, 50 to 100) on 35 mm dishes containing DMEM plus 10% FBS as previously described (Vega R B, et al. (2004) Protein kinases C and D mediate agonist-dependent cardiac hypertrophy through nuclear export of histone deacetylase 5. Mol Cell Biol 24(19):8374-8385).
(§2) After 24 hour culture, cells were maintained in serum-free DMEM medium for additional 24 hours, and then exposed to various inducers or inhibitors (for 30 minutes) prior to PE or PMA stimulation for indicated times. The cells were washed with PBS and fixed with 3.7% formaldehyde in PBS. Images were captured at a magnification of ×60, using a fluorescence microscope (Olympus BX51) equipped with a digital camera and Spot software system (RT Color Diagnostic Instruments). For analysis of the myocyte marker, sarcomeric α-actinin antibody and DAPI in neonatal cardiomyocyte, immunocytochemistry were performed according to a standard protocol. For subcellular localization of endogenous HDAC5 in cardiomyocyes, we fixed cells and used the detergent Saponin (Sigma, 84510) to make cells permeable, and then performed immunocytochemistry with anti-HDAC5 antibody (Santa Cruz, sc-11419). For subcellular localization of HDAC5, total around 200 cells were counted in each condition. For cardiomyocyte size, total myocyte surface areas were calculated using NIH Image J software, and expressed as the average of 100 randomly selected cells per condition.

[2] = tested on: ANF, β-MHC, α-SMA expression; assay: RT-PCR of cardiac fetal gene expression in NRVMs; assay type: cell-based, rat; conditions: NRVMs with GFP-HDAC5-WT; PE 24 hours
Procedure: The mRNA was extracted from the cell lysates and then RT-PCR with the primers for ANF, β-MHC, α-SMA, and GADPH (internal control) was performed. *, p<0.05 versus PE+Ad-GFP; #, p<0.05 versus PE+GFP-HDAC5-WT, n=4.
The mRNA was extracted from the cell lysates, and quantitative RT-PCR with the primers for ANF and GADPH (internal control) were performed as described in the Examples. Quantitative data are shown (n=4).
Total RNA was isolated from NRVM using TRIzol (Invitrogen Corp.). Firststrand cDNA was synthesized with the SuperScript Preamplification System (Gibco-BRL). cDNA was amplified by PCR for 30 cycle (Applied Biosystem) as described previously (4, 5). Rat GAPDH served as an internal control. The following oligonucleotide primers were used in this study: rat ANF, sense 5′-[…]-3′ (SEQ ID NO:11) and antisense 5′-[…]-3′(SEQ ID NO:12) rat α-SMA, sense 5′-[…]-3′ (SEQ ID NO:13) and antisense 5′-[…]-3′ (SEQ ID NO:14); rat β-MHC (myosin heavy chain), sense 5′-[…]-3′ (SEQ ID NO:15) and antisense 5′-[…]-3′ (SEQ ID NO:16); rat GAPDH, sense 5′-[…]-3′ (SEQ ID NO:17) and antisense 5′-[…]-3′ (SEQ ID NO:18). Experiments were repeated three times.

NRVMs = assay: Cardiomyocyte hypertrophy (cell size, α-actinin immunostaining) in NRVMs; assay type: cell-based, rat
Excerpt: A-H, Cardiomyocyte size was detected by immunostaining with anti-α-actinin antibody. […] The cells were fixed and analyzed for GFP-HDAC5 localization, α-actinin staining and nuclear DAPI staining *, p<0.05 versus without PE; #, p<0.05 versus with PE alone. I, Schematic model for PKA-dependent regulation of HDAC5 subcellular localization and gene transcription.
Cardiomyocyte protein marker α-actinin was detected by immunofluorescence using antibody against α-actinin and fluorescein-conjugated secondary antibody.
as §2

HDAC5 nuclear export [3] = assay: PE-induced HDAC5 nuclear export in neonatal rat ventricular cardiomyocytes (NRVMs); assay type: cell-based
Procedure: as §1
(§3) The cells were fixed and GFP-HDAC5 localization was analyzed by fluorescence microscopy. α-actinin was detected by immunofluorescence using an antibody against α-actinin and a fluorescein-conjugated secondary antibody. The nuclei were stained with DAPI.
as §3, with “DAPI. B, PKA expression in cell lysates were determined by Western blot using PKA antibody.” for “DAPI.”
The cells were fixed and endogenous HDAC5 localization was analyzed by fluorescence microscopy. HDAC5 and α-actinin was detected by immunocytochemistry with antibody against HDAC5 and α-actinin.
The cells were fixed and GFP-HDAC5 subcellular localization was analyzed by fluorescence microscopy and stained with an α-actinin antibody and DAPI.
Cos7 cells were grown in Dulbecco's Modified Eagle's Medium (DMEM) supplemented with fetal bovine serum (10%), 1-glutamine and penicillin/streptomycin. Primary cultures of neonatal rat cardiac ventricular myocytes (NRVMs) from 1- to 2-day-old Sprague-Dawley rats (Charles River Laboratories) were prepared. In brief, NRVMs were dispersed from the ventricles by digestion with collagenase type II (Worthington). Cells were cultured in Dulbecco's modified Eagle's medium (DMEM) supplemented with 1,000 mg/L D-glucose, L-glutamine, and 110 mg/L sodium pyruvate (GIBCO), fetal bovine serum (10%), and penicillin/streptomycin at 37° C. in a 5% CO2 humidified atmosphere for 2-3 days. For inducer or inhibitor studies, cells were pretreated with various inducers or inhibitors for 30 min in serum-free medium. Primary cultures of adult rat cardiomyocytes were prepared from 200-250g male Sprague-Dawley rats. Briefly, rats were anesthetized, hearts excised and placed in Krebs buffer and perfused and digested with endotoxin-free collagenase II (Worthington). This protocol typically yielded approximately 4×10^6 cells per heart, with ˜85% surviving, rod-shaped Ca2+-tolerant cells. Myocytes were allowed to attach to 20 μg/ml laminin coated plates in Modified Eagle Medium (MEM) containing 2.5% FBS, 25 mmol/L HEPES, 5 mmol/L taurine, 2 mmol/L carnitine, 2 mmol/L creatinine, 100 IU/ml penicillin, and 100 μg/ml streptomycin for 2 hrs before replacing with serum-free MEM containing 25 mmol/L HEPES, 5 mmol/L taurine, 2 mmol/L carnitine, 2 mmol/L creatinine, 100 IU/ml penicillin, and 100 μg/ml streptomycin.
Adenoviruses encoding Flag-tagged HDAC5 wild-type (WT), GFP-tagged HDAC5-WT, and YFP-tagged HDAC7-WT were generated as described previously (Ha C H, et al. (2008) Protein Kinase D-dependent Phosphorylation and Nuclear Export of Histone Deacetylase 5 Mediates Vascular Endothelial Growth Factor-induced Gene Expression and Angiogenesis. J Biol Chem 283(21):14590-14599; Ha C H et al. (2008) VEGF stimulates HDAC7 phosphorylation and cytoplasmic accumulation modulating matrix metalloproteinase expression and angiogenesis. Arterioscler Thromb Vasc Biol 28(10):1782-1788). Adenovirus expressing GFP-tagged HDAC5-S280A mutant, GFP-tagged HDAC5-S280D mutant and Flag-tagged HDAC5-S280A mutant were generated by using ViraPower Adenoviral Expression System (Invitrogen) according to the manufacturer's protocol. Adenovirus containing β-galactosidase (LacZ) or GFP was used as a control. […]

HDAC7 nuclear export = assay: PMA-induced YFP-HDAC7 nuclear export in Cos7 cells; assay type: cell-based
Procedure: Transient transfection of plasmid DNA was performed using lipofectamine 2000 (Invitrogene, Carlsbad, Calif.) and 0.5 μg of the indicated plasmids.

GST-HDAC5-WT (273-286) = tested on: T1, GST-HDAC5-WT (273-286)
T1 sequence: KVAERRSSPLLRRK

[4] = NRVMs with GFP-HDAC5-WT, PE 24 hours

Sequence of Myc-HDAC5 AA 1-360 (chain, as listed by the source): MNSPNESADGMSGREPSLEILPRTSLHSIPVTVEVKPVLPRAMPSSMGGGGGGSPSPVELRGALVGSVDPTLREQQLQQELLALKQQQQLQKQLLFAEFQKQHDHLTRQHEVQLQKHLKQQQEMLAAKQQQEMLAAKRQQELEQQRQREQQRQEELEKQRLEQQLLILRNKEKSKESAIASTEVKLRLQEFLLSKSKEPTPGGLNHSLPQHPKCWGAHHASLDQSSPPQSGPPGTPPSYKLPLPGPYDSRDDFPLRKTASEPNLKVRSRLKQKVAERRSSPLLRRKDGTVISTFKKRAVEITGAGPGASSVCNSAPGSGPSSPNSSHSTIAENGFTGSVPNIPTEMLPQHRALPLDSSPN

For CCCCCC[C@@H]([C@@H](C)O)n1cnc2c(N)ncnc21 (racemic) [EHNA, erythro-9-(2-hydroxy-3-nonyl)adenine], the “PMA-induced HDAC5 nuclear export” value (HDAC5 nuclear export [1]) was “inhibited HDAC5 nuclear export”.
With CC(C)Cn1c(=O)n(C)c(=O)c2[nH]cnc21 [IBMX, 3-isobutyl-1-methylxanthine] the “PMA-induced HDAC5 nuclear export” value (HDAC5 nuclear export [1]) was “inhibited HDAC5 nuclear export”.
For CNC[C@H](O)c1cccc(O)c1 [PE, R-(−)-Phenylephrine], the “expression of ANF, β-MHC and α-SMA (stimulus alone)” value [2] was “significantly increased expression of ANF, β-MHC and α-SMA”, the “cell size (stimulus alone)” value (NRVMs; [4]) was “increased cell size” and the “HDAC5 localization (stimulus alone)” value (HDAC5 nuclear export [3]; [4]) was “HDAC5 nuclear export”.
In the case of CCCC(=O)Nc1nc2c(ncn2[C@@H]2O[C@@H]3COP(=O)(O)O[C@H]3[C@H]2OC(=O)CCC)c(=O)[nH]1 [cGMP, DibutyrylcGMP], the “PMA-induced HDAC5 nuclear export” value (HDAC5 nuclear export [1]) is reported as “did not block HDAC5 nuclear export”.
For CN(C(=O)CCCOc1ccc2[nH]c(=O)ccc2c1)C1CCCCC1 [cilostamide], the “PMA-induced HDAC5 nuclear export” value (HDAC5 nuclear export [1]) was “did not block HDAC5 nuclear export”.
With C=C[C@@]1(C)CC(=O)[C@]2(O)[C@@]3(C)[C@@H](O)CCC(C)(C)[C@@H]3[C@H](O)[C@H](OC(C)=O)[C@@]2(C)O1 [forskolin] the “PMA-induced nuclear export of YFP-HDAC7 (WT)” value (HDAC7 nuclear export) was “no inhibitory effect”.
For CC(C)NCC(O)c1ccc(O)c(O)c1 (stereo not shown) [isoproterenol], the “PMA-induced HDAC5 nuclear export” value (HDAC5 nuclear export [1]) was “inhibited HDAC5 nuclear export” and the “PE-stimulated HDAC5 nuclear export” value (HDAC5 nuclear export [3]; NRVMs, adenoviral GFP-HDAC5, 30 min pretreatment, PE 10 μM 3 hours) was “markedly inhibited PE-stimulated HDAC5 nuclear export”.
COc1ccc(C2CNC(=O)C2)cc1OC1CCCC1 (stereo not shown) [rolipram] was tested, and the “PMA-induced HDAC5 nuclear export” value (HDAC5 nuclear export [1]) was “inhibited HDAC5 nuclear export” and the “PE/Angiotensin II-induced cardiomyocyte hypertrophy” value (NRVMs; NRVMs, forskolin 10 μM, cAMP 500 μM, Rolipram 10 μM 30 min, PE or Angiotensin II 24 hours) was “inhibit PE/Angiotensin II-induced cardiomyocyte hypertrophy”.
In the case of “PKA Inhibitor 14-22 Amide (SGRTGRRNA-NH2; UniProt P61925 14-22, looked up, fragment) [PKI]”, the “effect on the inhibition of HDAC5 nuclear export by forskolin and cAMP” value (HDAC5 nuclear export [1]; GFP-HDAC5, PKI pretreatment, then forskolin or cAMP, then PMA 3 hours) is reported as “abolished the inhibition of forskolin and cAMP on HDAC5 nuclear export” and the “effect on the inhibitory effects of cAMP on PE-induced HDAC5 nuclear export” value (HDAC5 nuclear export [3]; NRVMs, GFP-HDAC5, PKA inhibition, then cAMP, PE 3 hours) is reported as “abolished the inhibitory effects of cAMP on PE-induced HDAC5 nuclear export”.
For “purified catalytic subunit of protein kinase A (PKA-CA, Calbiochem)”, the “in vitro kinase assay, 32P autoradiography” value (Myc-HDAC5 AA 1-360) was “the similar phosphorylation by PKA-CA in an in vitro kinase assay (FIG. 14) was also detected” and the “in vitro kinase assay, 32P autoradiography” value (GST-HDAC5-WT (273-286)) was “recombinant PKA-CA phosphorylated the GST-tagged peptide of HDAC5-WT”.
